Data from US11780841B2, “3,6-methano-1H-pyrrolo[3,2-b]pyridine and 3,6-methano-1H-pyrrolo[3,2-c]pyridine compounds and medicaments using same” (priority 2018, dated 2023).
Like-named read-outs stand apart in the source and are kept apart here.

How the values were obtained:
rabies virus = conditions: mouse, in vivo; cited from earlier work
[1] = system: recombinant rabies virus 1088 strain expressing Gaussia Luciferase (GLuc) (1088/GLuc); assay type: cell-based

| Structure (SMILES) | IC50 ([1]; read-out: Anti-rabies activity) [µM] | other results |
| --- | --- | --- |
| NC(=O)c1nc(F)c[nH]c1=O [Compound T-705, Favipiravir] | – | prophylactic effect on rabies virus (rabies virus): significant prophylactic effect was confirmed; IC50 ([1]; read-out: anti-rabies virus activity IC50): 30 µM |
| CC(C)CN1C[C@@H]2C[C@@H]3CN[C@]2(C(=O)NCc2ccccc2)[C@@H]1[C@@H]3Cc1ccc(O)cc1 [IB-783] | 10 to 30 | – |
| NC(=O)CN1C[C@@H]2C[C@@H]3CN[C@]2(C(=O)NCc2ccc(F)cc2)[C@@H]1[C@@H]3CCc1ccccc1 [IB-95] | < 5 | – |
| N=C(N)NCCC[C@@H]1[C@@H]2[C@@H]3CN[C@@]1(C(=O)NCc1ccc(F)cc1)C[C@@H]3CN2Cc1cccc2ccccc12 [IF-245] | < 5 | – |
| CC(C)CN1C[C@H]2C[C@]3(C(=O)NCc4ccccc4)NC[C@H]2[C@H]1[C@H]3Cc1ccccc1 (relative stereo) [IF-1, (3S*,3aS*,6S*,7R*,7aS*)-N,7-dibenzyl-1-isobutyloctahydro-6H-3,6-methanopyrrolo[3,2-c]pyridine-6-carboxamide] | 10 to 30 | IC50 ([1]; read-out: IC50): 12.6 µM |
| O=C(NCCO)[C@]12NC[C@H]3C[C@H]1CN(CCc1ccccc1)[C@H]2[C@@H]3Cc1ccccc1 [IB-640] | < 5 | – |
| CC(C)C[C@@H]1[C@H]2CN[C@@]3(C(=O)NC(C)C)[C@@H](C2)CN(CCCNC(=N)N)[C@@H]13 [IB-176] | 10 to 30 | – |
| O=C(O)CCNC(=O)[C@@]12C[C@@H]3CN(CC4CCCCC4)[C@@H]([C@@H]3CN1)[C@H]2Cc1cccc2ccccc12 [IF-416] | 10 to 30 | – |
| CC(C)C[C@@H]1[C@@H]2[C@@H]3CN[C@@]1(C(=O)NCCc1ccccc1)C[C@@H]3CN2Cc1ccccc1 [IF-721] | < 5 | – |
| CC(C)CCN1C[C@@H]2C[C@@H]3CN[C@]2(C(=O)NCCO)[C@@H]1[C@@H]3CCc1ccccc1 [IB-658] | 10 to 30 | – |
| O=C(O)CCNC(=O)[C@@]12C[C@@H]3CN(CCO)[C@@H]([C@@H]3CN1)[C@H]2Cc1cccc2ccccc12 [IF-444] | 10 to 30 | – |
| NC(=O)CCNC(=O)[C@@]12C[C@@H]3CN(Cc4cccc5ccccc45)[C@@H]([C@@H]3CN1)[C@H]2Cc1ccc(O)cc1 [IF-435] | < 5 | – |
| CC(C)C[C@@H]1[C@@H]2[C@@H]3CN[C@@]1(C(=O)NCc1cccc4ccccc14)C[C@@H]3CN2CC(N)=O (relative stereo) [IF-81] | 10 to 30 | – |
| Cc1ccc(CN2C[C@@H]3C[C@@H]4CN(CC(C)C)[C@]3(C(=O)NCc3ccccc3)[C@@H]2[C@@H]4CC(C)C)cc1 (relative stereo) [IB-881] | < 5 | – |
| CC(C)CCNC(=O)[C@]12NC[C@H]3C[C@H]1CN(CC1CCCCC1)[C@H]2[C@@H]3Cc1ccc(O)cc1 [IB-648] | 10 to 30 | – |
| CC(C)CNC(=O)C12NCC3CC1CN(CC1CCCCC1)C2C3CCC(=O)O (centres unmarked) [IB-510] | 10 to 30 | – |
| CC(C)CC[C@@H]1[C@@H]2[C@@H]3CN[C@@]1(C(=O)NC(C)C)C[C@@H]3CN2Cc1ccc(O)cc1 [IF-503] | < 5 | – |
| CC(C)CC[C@@H]1[C@H]2CN[C@@]3(C(=O)NCc4cccc5ccccc45)[C@@H](C2)CN(CC(N)=O)[C@@H]13 [IB-84] | 10 to 30 | – |
| CC(C)CNC(=O)[C@@]12C[C@@H]3CN(Cc4ccccc4)[C@@H]([C@@H]3CN1)[C@H]2Cc1ccccc1 (relative stereo) [IF-6] | 10 to 30 | IC50 ([1]; read-out: IC50): 16.3 µM |
| CC(C)CCNC(=O)C12NCC3CC1CN(Cc1ccc(O)cc1)C2C3Cc1ccccc1 (centres unmarked) [IB-574] | 10 to 30 | – |
| CC(C)C[C@@H]1[C@@H]2[C@@H]3CN[C@@]1(C(=O)NCc1cccc4ccccc14)C[C@@H]3CN2CCO (relative stereo) [IF-542] | < 5 | – |
| CC(C)C[C@@H]1[C@@H]2[C@@H]3CN[C@@]1(C(=O)NCCc1ccccc1)C[C@@H]3CN2Cc1ccc(F)cc1 [IF-714] | < 5 | – |
| CC(C)CCN1C[C@H]2C[C@]3(C(=O)NCCC(=O)O)NC[C@H]2[C@H]1[C@H]3CCc1ccccc1 [IF-830] | 10 to 30 | – |
| NC(=O)CN1C[C@H]2C[C@]3(C(=O)NCc4cccc5ccccc45)NC[C@H]2[C@H]1[C@H]3Cc1ccccc1 (relative stereo) [IF-82] | 10 to 30 | – |
| CC(C)C[C@@H]1[C@H]2CN[C@@]3(C(=O)NCc4ccccc4)[C@@H](C2)CN(CCc2ccccc2)[C@@H]13 [IB-757] | < 5 | – |

| Structure (SMILES) | IC50 ([1]; read-out: Anti-rabies activity) [µM] | other results |
| --- | --- | --- |
| CCCCCCNC(=O)C12NCC3CC1CN(CCC(C)C)C2C3CC(C)C (centres unmarked) [IB-551] | < 5 | – |
| CC(C)C[C@@H]1[C@H]2CN[C@@]3(C(=O)NCc4cccc5ccccc45)[C@@H](C2)CN(CC(N)=O)[C@@H]13 (relative stereo) [IB-81] | 10 to 30 | – |
| CCC1N[C@@]2(C(=O)NCc3ccccc3)C[C@@H]3CN(CC(C)C)[C@@H]([C@H]13)[C@H]2Cc1ccccc1 (relative stereo) [IF-69] | 10 to 30 | IC50 ([1]; read-out: IC50): 16.5 µM |
| CCCCCCNC(=O)[C@]12NC[C@H]3C[C@H]1CN(CC(N)=O)[C@H]2[C@@H]3Cc1cccc2ccccc12 [IB-110] | < 5 | – |
| CC(C)CC[C@@H]1[C@H]2CN[C@@]3(C(=O)NCC(C)C)[C@@H](C2)CN(CC(C)C)[C@@H]13 [IB-378] | < 5 | – |
| CC(C)CC[C@@H]1[C@H]2CN[C@@]3(C(=O)NCCC(N)=O)[C@@H](C2)CN(Cc2ccccc2)[C@@H]13 [IB-274] | 10 to 30 | – |
| CCCCCCNC(=O)[C@]12NC[C@H]3C[C@H]1CN(CCCNC(=N)N)[C@H]2[C@@H]3CCc1ccccc1 [IB-174] | 10 to 30 | – |
| O=C(NCCc1ccccc1)[C@@]12C[C@@H]3CN(CCO)[C@@H]([C@@H]3CN1)[C@H]2Cc1cccc2ccccc12 [IF-610] | 10 to 30 | – |
| CC(C)C[C@@H]1[C@H]2CN[C@@]3(C(=O)NCCO)[C@@H](C2)CN(CCc2ccccc2)[C@@H]13 [IB-641] | 10 to 30 | – |
| Cc1ccc(CN2C[C@H]3C[C@@]4(C(=O)NCc5ccccc5)[C@H](CC(C)C)[C@@H]2[C@@H]3CN4C(=O)OCc2ccccc2)cc1 [IF-862] | 5 to 10 | – |
| CC(C)CN1C[C@H]2C[C@]3(C(=O)NCc4ccc(O)cc4)NC[C@H]2[C@H]1[C@H]3CCc1ccccc1 (relative stereo) [IF-576] | 10 to 30 | – |
| CC(C)CNC(=O)[C@]12NC[C@@H]3C[C@H]1CN(Cc1ccccc1)[C@H]2[C@@H]3CC(C)C (relative stereo) [IB-4] | 10 to 30 | IC50 ([1]; read-out: IC50): 19.2 µM |
| CC(C)CCNC(=O)[C@@]12C[C@@H]3CN(CC4CCCCC4)[C@@H]([C@@H]3CN1)[C@H]2Cc1ccccc1 [IF-658] | < 5 | – |
| CC(C)CC[C@@H]1[C@@H]2[C@@H]3CN[C@@]1(C(=O)NCc1ccccc1)C[C@@H]3CN2CC(C)C [IF-850] | 5 to 10 | – |
| CC(C)CCNC(=O)[C@@]12C[C@@H]3CN(CC4CCCCC4)[C@@H]([C@@H]3CN1)[C@H]2CC(C)C [IF-659] | 10 to 30 | – |
| COc1ccc(CN2CC3CC4(C(=O)NCc5ccccc5)N=CC3C2C4CC(C)C)cc1 (centres unmarked) [IIF-85] | 5 to 10 | – |
| CC(C)CNC(=O)[C@]12N=C[C@@H]3C[C@H]1CN(Cc1ccccc1)[C@H]2[C@@H]3CC(C)C (relative stereo) [IIB-4] | 5 to 10 | IC50 ([1]; read-out: IC50): 8.9 µM |
| CC(C)CCNC(=O)[C@@]12C[C@@H]3CN(Cc4ccc(F)cc4)[C@@H]([C@@H]3CN1)[C@H]2CC(C)C (relative stereo) [IF-585] | < 5 | – |
| CC(C)CC[C@@H]1[C@H]2CN[C@@]3(C(=O)NCCC(=O)O)[C@@H](C2)CN(CC2CCCCC2)[C@@H]13 [IB-613] | 10 to 30 | – |
| CC(C)CC[C@@H]1[C@@H]2[C@@H]3CN[C@@]1(C(=O)NCC(C)C)C[C@@H]3CN2Cc1ccccc1 [IF-411] | < 5 | – |
| CC(C)CCN1C[C@H]2C[C@]3(C(=O)NCC(C)C)NC[C@H]2[C@H]1[C@H]3Cc1cccc2ccccc12 [IF-734] | < 5 | – |
| CC(C)CC[C@@H]1[C@H]2CN[C@@]3(C(=O)NCc4ccc(O)cc4)[C@@H](C2)CN(CC(C)C)[C@@H]13 [IB-465] | 10 to 30 | – |
| CC(C)CC[C@@H]1[C@H]2CN[C@@]3(C(=O)NCc4ccc(O)cc4)[C@@H](C2)CN(CCC(=O)O)[C@@H]13 [IB-402] | 10 to 30 | – |
| CC(C)CCN1C[C@H]2C[C@]3(C(=O)NCCc4ccccc4)NC[C@H]2[C@H]1[C@H]3Cc1ccc(O)cc1 (relative stereo) [IF-545] | 10 to 30 | – |
| CC(C)CC[C@@H]1[C@@H]2[C@@H]3CN[C@@]1(C(=O)NCc1ccc(O)cc1)C[C@@H]3CN2CCC(=O)O [IF-458] | 10 to 30 | – |
